From patent US11175204B1, “7-hydroxycoumarin-based cell-tracking reagents” (LIFE TECHNOLOGIES CORPORATION, priority 2009, dated 2021)

Tested on: Human peripheral blood mononuclear cells
Assay: Cell proliferation tracking by dye dilution, flow cytometry (Biological Application Example 1)
Assay type: cell-based
Details: 1 μM staining; for loss of fluorescence over 24 hours: initial 24 hours after staining; for fluorescence histogram from stimulated cells / fluorescence intensity and coefficient of variation from unstimulated cells: six days after staining
Procedure: Human peripheral blood mononuclear cells were isolated from whole blood using a Ficoll density gradient, then washed and resuspended in phosphate buffered saline (DPBS) at a concentration of 10^6/mL. The general procedure used is as follows: • 1. Dilute 8 mL of whole blood into 8 mL of 1×PBS and mix well. • 2. Add 6 mL Ficoll-Paque Plus to a 15-mL centrifuge tube, then layer 8 mL diluted whole blood on top. • 3. Centrifuge 30 min at 400 g, then carefully remove the lymphocyte layer. • 4. Resuspend cells in 25 mL DPBS buffer in a 50-mL conical tube. • 5. Spin tube for 5 min at 200 g, pour off supernatant and resuspend in 25 mL DPBS. • 6. Repeat wash step and resuspend in 300 μL of Isolation Buffer. • 7. Count cells on cellometer; adjust cell concentration to 10^6 cells/mL
Compound 2, Compound 6, Compound 7, and Carboxyfluorescein Diacetate Succinimidyl ester (CFSE) were each dissolved in anhydrous dimethylsulfoxide to a concentration of 1 mM. Aliquots, 4-mL, of cells were then stained with 4 μL of Compound 2, Compound 6, Compound 7, or CFSE for final staining concentrations of 1 μM. Cells were incubated with agitation at room temperature for 20 minutes. Then 2 mL of heat-inactivated Fetal Bovine Serum (FBS) were added, followed by 5 more minutes of incubation. Cells were washed twice with DPBS+10% FBS and resuspended in 4 mL of OpTmizer T-Cell Expansion Buffer (GIBCO) containing 2 mM L-glutamine, and 100,000 units penicillin and 100 mg streptomycin per liter. Aliquots (1-mL) of cells stained with Compound 2, Compound 6, Compound 7, or CFSE, and a 1-ml aliquot of unstained cells were then dispensed into a 24-well polystyrene plate and incubated at 37° C. and 5% CO2 for 24 hours. One of the following four stimulus conditions were then applied individually to the cells: i) 200 ng anti-CD3 (2 μL), incubated on ice for 30 min, then transferred to culture plate and add 100 ng iL-2 per mL of culture media, ii) 5 μg/mL Concanavalin A (5 μL of a 1 mg/mL solution), iii) 75 μL CD3/CD28 T cell expander beads, or iv) no stimulus. The cells were then incubated for 72 additional hours at 37° C. and 5% CO2. Aliquots (500-μL) of cells from each treatment were analyzed immediately following staining, and at 24 hours and six days after staining.
Aliquots (500 μL) of cells were washed and resuspended in PBS, stained with mouse anti-human CD3 or CD8 R-phycoerythrin primary antibody conjugates for 15 minutes, then washed and stained with SYTOX® Red Dead Cell Stain for 5 minutes. Cells were then run through the Becton Dickinson (BD) LSRII Flow Cytometer. Fluorescence was collected using three lasers: the 405 nm excitation laser with 450/50 bandpass emission filter, the 488 nm excitation laser with 585/42 bandpass emission filter, and the 633 nm excitation laser with 660/20 bandpass emission filter. A gating strategy was employed to limit analysis to only the cells of interest. Cells were gated first on SYTOX® Red Dead Cell Stain negative (live) cells, then on R-phycoerythrin positive cells (CD3+ or CD8+ positive). […] CountBright™ Absolute Counting Beads were evaluated in each fluorescence histogram prior to each run to account for day-to-day instrument variations.

Compound | loss of fluorescence over 24 hours | fluorescence histogram from stimulated cells | fluorescence intensity and coefficient of variation from unstimulated cells
CC(=O)OCOc1cc2oc(=O)c(C(=O)N3CCC(C(=O)ON4C(=O)CCC4=O)CC3)cc2cc1Cl [Compound 7] | very little loss of fluorescence | distinct peaks corresponding to each generation of cells | little change from initial staining
CC(=O)Oc1cc2oc(=O)c(C(=O)N3CCC(C(=O)ON4C(=O)CCC4=O)CC3)cc2cc1Cl [Compound 6] | very little loss of fluorescence | distinct peaks corresponding to each generation of cells | little change from initial staining
CC(=O)Oc1cc2oc(=O)c(C(=O)ON3C(=O)CCC3=O)cc2cc1Cl [Compound 2] | very little loss of fluorescence | distinct peaks corresponding to each generation of cells | little change from initial staining
Carboxyfluorescein Diacetate Succinimidyl ester [CFSE, reference compound] | moderate fluorescence loss | distinct peaks corresponding to each generation of cells | little change from initial staining
